Measurements as given in US20100168102A9, “Amide Derivatives as Kinase Inhibitors” (Devgen NV, priority 2005, published 2010).
pIC50: −log10 of the molar value. Structures can show the parent of a compound that is named as a salt. Where two headings read alike, the source gives them in different places.

Assays:
human ROCKα/ROCKII mix = target: T1, human ROCKα/ROCKII mix (Homo sapiens, UniProt O75116); test: Biochemical assay for ROCK (fluorescence polarization, ROCK IMAP Kit)
T1 construct: purchased Upstate Biotechnology 14-451

PKC epsilon = target: T2, PKC epsilon (Homo sapiens, UniProt Q02156); test: Biochemical assay for PKC epsilon (fluorescence polarization, Protein Kinase C Assay Kit, Red); details: read-out: IC50 μM PKCε
T2 construct: purchased Invitrogen P2282
T2 sequence (Q02156 1-737): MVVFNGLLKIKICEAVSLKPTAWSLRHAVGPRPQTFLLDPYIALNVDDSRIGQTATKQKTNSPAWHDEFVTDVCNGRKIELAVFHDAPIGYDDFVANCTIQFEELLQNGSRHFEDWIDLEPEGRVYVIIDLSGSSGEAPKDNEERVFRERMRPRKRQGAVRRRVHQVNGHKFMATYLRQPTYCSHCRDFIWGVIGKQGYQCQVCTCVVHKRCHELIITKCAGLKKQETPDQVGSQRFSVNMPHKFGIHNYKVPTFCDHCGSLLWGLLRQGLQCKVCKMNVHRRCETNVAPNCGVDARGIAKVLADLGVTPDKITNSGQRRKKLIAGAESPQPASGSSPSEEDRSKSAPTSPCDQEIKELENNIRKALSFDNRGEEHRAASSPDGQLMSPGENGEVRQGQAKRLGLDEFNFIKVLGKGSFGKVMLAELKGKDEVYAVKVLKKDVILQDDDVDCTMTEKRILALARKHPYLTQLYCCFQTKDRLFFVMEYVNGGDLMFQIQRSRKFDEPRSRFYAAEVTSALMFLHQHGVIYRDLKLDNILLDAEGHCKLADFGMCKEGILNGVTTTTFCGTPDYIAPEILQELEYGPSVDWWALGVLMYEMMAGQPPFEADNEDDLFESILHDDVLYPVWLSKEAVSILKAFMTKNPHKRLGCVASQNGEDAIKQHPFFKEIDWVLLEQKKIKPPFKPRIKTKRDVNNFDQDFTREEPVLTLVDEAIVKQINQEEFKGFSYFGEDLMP
How it was run: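 PKC epsilon at 10 ng/ml final was preincubated 30 min at room temperature with compound in HEPES pH 7.4 with DTT and Triton X-100. ATP/protein substrate was then added in buffer with MgCl2 and CaCl2 for 80 min. The reaction was stopped with EDTA, phosphorylation was detected by fluorescence polarization with rhodamine tracer and anti-phosphoserine antibody, and IC50 values came from curve fits.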

PKC theta = target: T3, PKC theta (Homo sapiens, UniProt Q04759); test: Biochemical assay for PKC theta (fluorescence polarization, Protein Kinase C Assay Kit, Red)
T3 construct: purchased Invitrogen P2996
Experimental: The compounds were tested for inhibition of PKC theta.
The inhibition assays were performed with a fluorescence polarization (FP) assay using the commercially available Protein Kinase C Assay Kit, Red, from Invitrogen (Product ID. No. P2941), essentially in accordance with the protocol supplied by the manufacturer. The substrate used was […] (Mw 1561), also obtained from Invitrogen (Product ID No. P2760). The isozyme PKC theta was also obtained from Invitrogen (Product ID No. P2996).
Staurosporine was used as a positive control (2 μM).
To perform the assay, 2 μl, of a solution of the compound to be tested in DMSO (at each concentration) was added to 6 μl of a solution of the enzyme in 10 mM HEPES, 5 mM dithiotreitol, 0.1% Triton X-100, pH 7.4. The final concentration of the enzymes was 60 ng/ml.
After incubating for 30 minutes at room temperature, 4 μl of a mixture of ATP and the protein substrate in 60 mM HEPES (pH7.4), 15 mM MgCl2, 0.3 mM CaCl2, 0.06% NP40 was added. The final concentration of the ATP was 2.5 μM and final concentration of protein substrate was 1 μM.
After incubating for 80 minutes at room temperature, 3 μl of a mix solution of 500 mM EDTA (stop solution) and the Rhodamine-based PKC Red Tracer (from the Protein Kinase C Assay Kit) in BGG/phosphate buffer (pH7.4) with 0.02% NaN3 and 0.1% Triton X-100 was added and 5 μl of a the Anti-Phosphoserine antibody (also from the Protein Kinase C Assay Kit) in BGG/phosphate buffer (pH7.4) with 0.02% NaN3.
The mixture thus obtained (total volume: 20 μl) was incubated for 60 minutes at room temperature, upon which the fluorescence polarization was measured using an automated plate reader (Perkin Elmer, Model Envision 2100-0010 HTS) with FP filters for rhodamine: excitation fitter FITC FP 531 and emission filters FITC FP P-pol 595 and FITC FP S-pol 595 (Perkin-Elmer). The results were fitted to a curve using the XL-Fit algorithm and IC50 values were calculated for each fitted curve, again using the XL-Fit algorithm.

PKCε = test: Reporter assay (PathDetect trans reporter, Elk/SEAP) in reporter cell-lines over-expressing PKCε; assay type: cell-based
Description: Whereas the reporter assay is focused on PKCε specific inhibition in a recombinant system, the monocytes assay is a biomarker assay that can be performed in isolated monocytes, full blood and in vivo to follow the pharmacological reduction of cytokine production:
The reporter assay exploits the effect of over-expressed PKCε on kinase activation and phosphorylation of a transcription factor to evaluate the potency and selectivity of PKCε inhibitors in a cellular context.
It has been shown by jae-Won Soh et al (MCB, February 1999 p 1313-1324) that over-expression of PKC epsilon results in the activation of MAPK-pathway (c-raf/MEK/ERK) leading to the activation of Elk transcription factor. This event can be monitored using the PathDetect trans reporter assay system (Stratagene): pFA2-ELK codes for a fusion protein between the Gal4 DNA binding domain and the transactivation domain of Elk which drives the expression of a secreted alkaline phosphatase (SEAP) reporter gene.
Compounds are incubated with reporter cell-lines either over-expressing PKCε, leading to continued activation of the kinase, or mock transfected cells. Inhibition of the PKCε induced signal in the absence of an effect on the basal level (mock transfected cells) is indicative for selective PKCε inhibition.

[1] = Table 2, compounds of Formula XIII

T3 sequence (Q04759 whole entry): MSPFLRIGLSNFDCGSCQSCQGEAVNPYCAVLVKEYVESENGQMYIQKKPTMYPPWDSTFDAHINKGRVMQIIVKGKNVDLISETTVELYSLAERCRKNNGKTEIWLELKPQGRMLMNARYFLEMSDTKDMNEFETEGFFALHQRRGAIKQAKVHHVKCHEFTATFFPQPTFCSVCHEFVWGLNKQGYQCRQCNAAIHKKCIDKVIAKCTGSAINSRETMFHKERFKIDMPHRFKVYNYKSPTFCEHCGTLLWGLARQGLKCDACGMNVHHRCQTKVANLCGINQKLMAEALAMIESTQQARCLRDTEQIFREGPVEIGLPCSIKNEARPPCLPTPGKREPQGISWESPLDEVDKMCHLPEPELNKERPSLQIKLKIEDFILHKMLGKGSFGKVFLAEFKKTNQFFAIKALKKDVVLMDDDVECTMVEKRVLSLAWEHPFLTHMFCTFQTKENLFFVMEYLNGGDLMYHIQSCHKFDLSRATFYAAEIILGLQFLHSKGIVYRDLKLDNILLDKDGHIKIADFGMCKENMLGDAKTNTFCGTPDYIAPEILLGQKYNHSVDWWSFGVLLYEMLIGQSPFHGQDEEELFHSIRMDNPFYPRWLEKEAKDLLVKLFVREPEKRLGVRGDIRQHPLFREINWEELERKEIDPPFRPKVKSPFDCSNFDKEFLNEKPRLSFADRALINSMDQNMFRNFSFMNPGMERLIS
T1 sequence (O75116 11-552 limits assumed): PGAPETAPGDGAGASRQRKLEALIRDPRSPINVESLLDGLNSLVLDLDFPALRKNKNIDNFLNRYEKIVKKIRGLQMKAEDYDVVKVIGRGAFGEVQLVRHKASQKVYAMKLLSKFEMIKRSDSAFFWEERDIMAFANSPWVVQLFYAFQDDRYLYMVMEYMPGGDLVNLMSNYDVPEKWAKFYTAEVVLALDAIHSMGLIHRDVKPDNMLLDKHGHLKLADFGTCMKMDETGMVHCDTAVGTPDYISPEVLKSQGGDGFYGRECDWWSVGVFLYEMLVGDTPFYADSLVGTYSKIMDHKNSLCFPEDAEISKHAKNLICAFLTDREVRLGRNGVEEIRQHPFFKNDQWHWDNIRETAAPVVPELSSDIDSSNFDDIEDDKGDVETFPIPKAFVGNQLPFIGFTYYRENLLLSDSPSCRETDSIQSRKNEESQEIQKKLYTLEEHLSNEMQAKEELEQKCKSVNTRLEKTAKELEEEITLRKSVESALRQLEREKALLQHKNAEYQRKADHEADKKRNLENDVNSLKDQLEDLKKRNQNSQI

| IC50 (human ROCKα/ROCKII mix; [1]) [µM] | IC50 (PKC epsilon; [1]) [µM] | pIC50 (PKC theta) | pIC50 (PKCε) | IC50 (human ROCKα/ROCKII mix) [µM] | IC50 (PKC epsilon) [µM] | Structure (SMILES) |
| --- | --- | --- | --- | --- | --- | --- |
| 0.05 to 0.5 | < 0.05 | > 7.30 | > 5.30 | – | – | CC(C)(C(=O)NCC(N)c1ccc(C(=O)Nc2ccncc2)cc1)c1ccc(F)cc1 (stereo not shown) [Compound 339, 4-{1-Amino-2-[2-(4-fluoro-phenyl)-2-methyl-propionylamino]-ethyl}-N-pyridin-4-yl-benzamide] |
| – | – | > 7.30 | > 5.30 | 0.05 to 0.5 | < 0.05 | CC(C)(C(=O)NC[C@@H](N)c1ccc(C(=O)Nc2ccncc2)cc1)c1ccc(Cl)cc1 [Compound 399, 4-{(S)-1-Amino-2-[2-(4-chloro-phenyl)-2-methyl-propionylamino]-ethyl}-N-pyridin-4-yl-benzamide dihydrochloric acid salt] |

Second part, the compound before the results:

| Structure (SMILES) | IC50 (human ROCKα/ROCKII mix; [1]) [µM] | IC50 (PKC epsilon; [1]) [µM] | pIC50 (PKC theta) | pIC50 (PKCε) | IC50 (human ROCKα/ROCKII mix) [µM] | IC50 (PKC epsilon) [µM] |
| --- | --- | --- | --- | --- | --- | --- |
| NC(CNC(=O)C1(c2ccc(Cl)cc2)CC1)c1ccc(C(=O)Nc2ccncc2)cc1 (stereo not shown) [Compound 168, 4-(1-Amino-2-{[1-(4-chloro-phenyl)-cyclopropanecarbonyl]-amino}-ethyl)-N-pyridin-4-yl-benzamide dihydrochloride] | 0.05 to 0.5 | < 0.05 | 6.30 to 7.30 | – | – | – |
| CC(C)(C(=O)NCC(N)c1ccc(C(=O)Nc2ccncc2)cc1)c1ccc(Cl)cc1 (stereo not shown) [Compound 335, 4-{1-Amino-2-[2-(4-chloro-phenyl)-2-methyl-propionylamino]-ethyl}-N-pyridin-4-yl-benzamide] | – | < 0.05 | 6.30 to 7.30 | > 5.30 | – | – |
| NC(CNC(=O)C1(c2ccc(Cl)cc2)CC1)c1ccc(C(=O)Nc2ccnc3[nH]ccc23)cc1 (stereo not shown) [Compound 371, 4-(1-Amino-2-{[1-(4-chloro-phenyl)-cyclopropanecarbonyl]-amino}-ethyl)-N-(1H-pyrrolo[2,3-b]pyridin-4-yl)-benzamide dihydrochloric acid salt] | – | – | > 7.30 | > 5.30 | – | – |
